Experimental data from PMC9374667 (Communications Biology, 2022).
“And” between values parts separate entries of the source, which are not always exact repeats. Identical values can stand only once.

Columns and labels:
[1] = In vitro dissolution studies: dynamic solubility in buffers and simulated biological fluids; type: physicochemical; settings: CMC-Na, mean
Procedure: Solubilities were determined by adding excess sample to 30 mL different mediums, such as HCl solution, acetate buffer, phosphate buffer, SGF, FaSSIF and FeSSIF. The configuration of various buffer solutions is shown in Supplementary Table 2. After being shaken at 400 rpm at 37 °C for 0.5, 1, 2, and 24 h, 0.3 mL of suspension was sampled and centrifuged at 14,000 rpm for 8 min to isolate mother liquor, and then analyzed by HPLC after dilution. All samples were analyzed in triplicate.

db/db mice [2] = assay: HE staining of epididymal adipose tissue, adipocyte size; type: in vivo; settings: for Cell diameter (adipocyte size of eWAT): individual cells
Procedure: The adipose tissue was fixed overnight in 4% paraformaldehyde, then embedded in paraffin and cut into 5 µm thick slices. Tissue sections were stained with hematoxylin and eosin (H&E). For immunohistochemistry, sections were incubated with primary antibodies against F4/80 (1:100 dilution) diluted in the blocking solution at 4 °C overnight. The tissue sections were then incubated with the horseradish peroxidase (HRP)-conjugated secondary antibody at room temperature for 2 h. Finally, the sections were developed with diaminobenzidine (DAB) and counterstained with hematoxylin. Images were obtained under a microscope. To quantify the F4/80-positive macrophages, two random fields per sample were analyzed by Image J software. The IHC profiler plugin of ImageJ was used to calculate the F4/80 positive area.

[3] = test system: Fasn, Acaca, Lpl, Ucp1, Ppargc1a, Ppargc1b, Elovl3, Cox8b; assay: qRT-PCR of lipid-metabolism-related genes (eWAT) and thermogenic genes (BAT); type: in vivo; settings: db/db mice
Text: Total RNA was isolated from 3T3-L1 cells and adipose tissue homogenates using Trizol reagent (Invitrogen, Carlsbad, CA, USA). RNA concentration and purity were examined at 260/280 nm using a nanodrop spectrophotometer (NanoDrop One, Thermo Fisher Scientific, USA). The total RNA was reverse transcribed to cDNA using the EasyScript All-in-One First-Strand cDNA Synthesis SuperMix for qPCR kit (TransGen Biotech, Beijing, China). The quantitative reverse transcription polymerase chain reaction was performed using TransStart Top Green qPCR SuperMix (TransGen Biotech, Beijing, China) and an Applied Biosystems 7500 RealTime PCR System (Life Technologies, USA). Relative expression levels were normalized to gapdh expression and quantified using the 2^-ΔΔCt method. The primers were synthesized by Shanghai Sangon Biotech, and the detailed primer sequences were shown in Supplementary Table 5 in the supplementary materials.

db/db mice [4] = assay: Weekly fasting glucose levels of db/db mice; type: in vivo; settings: for Weekly fasting glucose levels of db/db mice (Figure 5a): individual mice 1-10, in mmol/L; for Fasting blood glucose level at the end of the treatment: mouse, in vivo
Procedure: The lean wild type control and the db/db control mice were given equal vehicle volume (0.5% CMC-Na solution). All mice were monitored for food intake, body weight, and fasting blood glucose during the 35-day trial. Glucose tolerance test (GTT) and insulin resistance test (ITT) were performed at 4 and 5 weeks of treatment, respectively. Metabolic analysis was performed at 5 weeks of treatment. At the end of the study, blood samples were taken through the retroorbital venous sinus of mice, fat depots (brown fat, inguinal subcutaneous fat, epididymal fat, perirenal fat and mesenteric fat depot) were dissected, weighed, and immediately frozen in liquid nitrogen and stored at −80 °C until required. Weight of fat depots are expressed in percentage (fat depots weight /bodyweight * 100%).

db/db mice [5] = assay: Insulin tolerance test (ITT), AUC and initial slope; type: in vivo; settings: for blood glucose level: individual mice, in mmol/L (unit assumed); for Initial Slope: individual animals (Figure S10a)
Procedure: Mice were fasted for 4 h for insulin resistance test and intraperitoneally injected with 1 unit/kg of insulin. Blood glucose levels were measured from the tail vein blood at 0, 15, 30, 45, 60, 90, and 120 min after injection. Plasma insulin levels were measured using an ultrasensitive mouse insulin ELISA kit (Nanjing Jiancheng Bioengineering Institute, Nanjing, China).

TNF-α and IL-6 = assay: Serum levels of TNF-α and IL-6 (ELISA); type: in vivo, mice; settings: for IL-6: Figure 5i, individual values
Procedure: The serum was collected by centrifugation at 3000 × g at 4 °C for 15 min and stored at −80 °C until analysis. TG, TC, LDL-C, HDL-C, and FFA were routinely tested on a Chemray 240 automatic biochemical analyzer (Chemray 240, Shenzhen, China). Serum levels of mouse adiponectin, interleukin6 (IL-6), tumor necrosis factor-α (TNF-α) were measured using commercial enzyme-linked immunosorbent assay (ELISA) kits (Nanjing Jiancheng Bioengineering Institute, Nanjing, China) and according to the manufacturer’s instructions. The levels of IL-6, TNF-α in 3T3-L1 adipocyte culture supernatant were also detected by ELISA.

CC(C)Cc1ccc(C(C)C(=O)[O-])cc1.COc1ccc2cc3[n+](cc2c1OC)CCc1cc2c(cc1-3)OCO2.O.O.O.O [BJ, berberine-ibuprofen]
BBR dissolved in CMC-Na (Figure S7a) ([1]; time 0.5): 0.8321
Ibu dissolved in CMC-Na (Figure S7b) ([1]; time 0.5): 0.4805
BBR dissolved in CMC-Na (Figure S7a) ([1]; time 1): 1.458
Ibu dissolved in CMC-Na (Figure S7b) ([1]; time 1): 0.5844
BBR dissolved in CMC-Na (Figure S7a) ([1]; time 2): 1.5642
Ibu dissolved in CMC-Na (Figure S7b) ([1]; time 2): 0.6306
BBR dissolved in CMC-Na (Figure S7a) ([1]; time 24): 1.6671
Ibu dissolved in CMC-Na (Figure S7b) ([1]; time 24): 0.6693
Cell diameter (adipocyte size of eWAT) (db/db mice [2]; 75 mg/kg): 121.031 µm and 117.863 µm and 116.509 µm and 116.462 µm and 115.083 µm and 111.737 µm and 111.179 µm and 109.716 µm and 106.71 µm and 106.209 µm and 103.54 µm and 98.2043 µm and 95.428 µm and 94.4084 µm and 90.8792 µm and 133.968 µm and 130.976 µm and 129.724 µm and 125.916 µm and 124.05 µm
Cell diameter (adipocyte size of eWAT) (db/db mice [2]; 150 mg/kg): 102.304 µm and 92.1827 µm and 91.4137 µm and 90.3818 µm and 88.4919 µm and 87.3914 µm and 86.5338 µm and 86.4994 µm and 85.9825 µm and 85.1497 µm and 81.6079 µm and 81.6018 µm and 80.5245 µm and 80.4936 µm and 112.756 µm and 110.047 µm and 105.5 µm and 104 µm and 102.927 µm
Size of adipocytes in eWAT compared with vehicle (db/db mice [2]; BJ 75 and 150 mg/kg, BBR 150 mg/kg, Ibu 150 mg/kg): significantly reduced
Expression of brown fat enrichment genes (Ucp1, Ppargc1a, Ppargc1b, Elovl3, Cox8b) in BAT [3]: elevated express
Expression of lipogenic genes (Fasn, Acaca, Lpl) in eWAT ([3]; vs vehicle control): downregulation of lipogenic genes
Weekly fasting glucose levels of db/db mice (Figure 5a) (db/db mice [4]; BJ 75mg/kg, 1st of 6 weekly columns (time not given)): 10.4 and 12.5 and 9.4 and 17.8 and 11.6 and 18.6 and 12.1 and 17.5 and 20.6 and 14.4
Weekly fasting glucose levels of db/db mice (Figure 5a) (db/db mice [4]; BJ 75mg/kg, 2nd of 6 weekly columns (time not given)): 21.7 and 12.2 and 16.6 and 18.3 and 16.2 and 21.2 and 15.0 and 18.5 and 24.4 and 17.9
Weekly fasting glucose levels of db/db mice (Figure 5a) (db/db mice [4]; BJ 75mg/kg, 3rd of 6 weekly columns (time not given)): 27.0 and 17.1 and 16.6 and 26.0 and 22.1 and 24.6 and 22.7 and 19.1 and 24.8 and 20.1
Weekly fasting glucose levels of db/db mice (Figure 5a) (db/db mice [4]; BJ 75mg/kg, 4th of 6 weekly (time not given)): 16.0 and 19.4 and 17.3 and 23.1 and 21.0 and 18.7 and 20.0 and 16.7 and 18.3 and 19.6
Weekly fasting glucose levels of db/db mice (Figure 5a) (db/db mice [4]; BJ 75mg/kg, 5th of 6 weekly (time not given)): 8.5 and 16.1 and 10.1 and 17.8 and 19.9 and 13.5 and 18.2 and 12.3 and 18.1 and 11.2
Weekly fasting glucose levels of db/db mice (Figure 5a) (db/db mice [4]; BJ 75mg/kg, 6th of 6 weekly (time not given)): 8.3 and 14.2 and 11.5 and 16.0 and 17.3 and 15.9 and 14.1 and 11.0 and 16.7 and 10.7
Weekly fasting glucose levels of db/db mice (Figure 5a) (db/db mice [4]; BJ 150mg/kg, 1st of 6 weekly columns (time not given)): 19.4 and 13.4 and 14.8 and 9.9 and 15.4 and 23.3 and 12.6
Weekly fasting glucose levels of db/db mice (Figure 5a) (db/db mice [4]; BJ 150mg/kg, 2nd of 6 weekly columns (time not given)): 13.5 and 10.8 and 19.3 and 10.6 and 16.2 and 16.8 and 22.9 and 16.4
Weekly fasting glucose levels of db/db mice (Figure 5a) (db/db mice [4]; BJ 150mg/kg, 3rd of 6 weekly columns (time not given)): 19.8 and 11.7 and 18.2 and 15.6 and 20.6 and 18.3
Weekly fasting glucose levels of db/db mice (Figure 5a) (db/db mice [4]; BJ 150mg/kg, 4th of 6 weekly (time not given)): 11.5 and 5.7 and 10.5 and 13.7 and 14.1 and 14.7
Weekly fasting glucose levels of db/db mice (Figure 5a) (db/db mice [4]; BJ 150mg/kg, 5th of 6 weekly (time not given)): 6.7 and 14.3 and 13.7 and 9.3 and 8.8 and 13.9
Weekly fasting glucose levels of db/db mice (Figure 5a) (db/db mice [4]; BJ 150mg/kg, 6th of 6 weekly (time not given)): 6.5 and 5.0 and 10.0 and 11.4 and 7.4 and 7.3 and 17.8
Blood (serum) glucose levels compared with vehicle (db/db mice [4]; db/db mice, BJ 75 and 150 mg/kg, BBR 150 mg/kg, Ibu 150 mg/kg): slowed the increase in glucose levels
Fasting blood glucose level at the end of the treatment (db/db mice [4]; 75 mg/kg): 13.6 ± 3.0 mmol/L
Fasting blood glucose level at the end of the treatment (db/db mice [4]; 150 mg/kg): 9.4 ± 3.6 mmol/L
blood glucose level (db/db mice [5]; BJ 75mg/kg, time column 1 of 7 (time not printed)): 18.5 and 19.1 and 12.0 and 14.2 and 11.0 and 11.7 and 16.7 and 19.2 and 21.8 and 15.9
blood glucose level (db/db mice [5]; BJ 75mg/kg, time column 2 of 7 (time not given)): 19.2 and 21.2 and 12.1 and 14.6 and 8.3 and 11.4 and 18.6 and 22.2 and 23.5 and 18.5
blood glucose level (db/db mice [5]; BJ 75mg/kg, time column 3 of 7 (time not given)): 18.3 and 19.0 and 10.1 and 10.5 and 8.8 and 7.5 and 13.7 and 19.3 and 20.1 and 11.6
blood glucose level (db/db mice [5]; BJ 75mg/kg, time column 4 of 7 (time not given)): 13.0 and 15.2 and 7.6 and 10.0 and 6.8 and 7.5 and 12.1 and 16.3 and 20.8 and 11.0
blood glucose level (db/db mice [5]; BJ 75mg/kg, time column 5 of 7 (time not given)): 12.4 and 16.1 and 8.4 and 8.8 and 5.9 and 7.1 and 11.2 and 16.2 and 16.3 and 10.1
blood glucose level (db/db mice [5]; BJ 75mg/kg, time column 6 of 7 (time not given)): 10.2 and 13.2 and 6.9 and 8.2 and 5.3 and 6.4 and 9.7 and 13.6 and 14.6 and 9.4
blood glucose level (db/db mice [5]; BJ 75mg/kg, time column 7 of 7 (time not printed)): 12.1 and 12.2 and 9.0 and 9.8 and 4.9 and 5.5 and 10.8 and 12.3 and 14.9 and 10.0
blood glucose level (db/db mice [5]; BJ 150mg/kg, time column 1 of 7 (time not printed)): 18.0 and 17.8 and 9.3 and 14.4 and 11.4
blood glucose level (db/db mice [5]; BJ 150mg/kg, time column 2 of 7 (time not given)): 13.2 and 15.0 and 7.7 and 11.7 and 11.6
blood glucose level (db/db mice [5]; BJ 150mg/kg, time column 3 of 7 (time not given)): 7.7 and 7.0 and 1.7 and 6.1
blood glucose level (db/db mice [5]; BJ 150mg/kg, time column 4 of 7 (time not given)): 7.2 and 6.7 and 1.5 and 6.3
blood glucose level (db/db mice [5]; BJ 150mg/kg, time column 5 of 7 (time not given)): 9.0 and 8.2 and 3.3 and 5.2
blood glucose level (db/db mice [5]; BJ 150mg/kg, time column 6 of 7 (time not given)): 8.2 and 7.6 and 2.8 and 7.0
blood glucose level (db/db mice [5]; BJ 150mg/kg, time column 7 of 7 (time not printed)): 10.4 and 7.7 and 4.0 and 7.3
Insulin sensitivity (ITT) (db/db mice [5]; db/db mice, 150 mg/kg, week 5): more sensitive to insulin stimulation
Initial Slope (db/db mice [5]; db/db mice, BJ 75mg/kg): -0.0733 mmol/L/min and -0.14 mmol/L/min and -0.1 mmol/L/min and 0.0033 mmol/L/min and -0.0567 mmol/L/min and -0.1433 mmol/L/min and -0.0067 mmol/L/min and -0.0033 mmol/L/min and -0.0633 mmol/L/min and -0.1233 mmol/L/min
Initial Slope (db/db mice [5]; db/db mice, BJ 150mg/kg): -0.1767 mmol/L/min and -0.22 mmol/L/min and -0.15 mmol/L/min and -0.28 mmol/L/min and -0.3433 mmol/L/min and -0.36 mmol/L/min and -0.2533 mmol/L/min and -0.2467 mmol/L/min
IL-6 (TNF-α and IL-6; BJ 75mg/kg): 26.97 and 31.48 and 28.06 and 26.92 and 26.5 and 27.07
IL-6 (TNF-α and IL-6; BJ 150mg/kg): 19.1 and 22.16 and 23.89 and 18.97 and 21.55 and 28.79
Serum TNF-α and IL-6 levels (TNF-α and IL-6; db/db mice, 5 weeks of treatment): significantly lower than those in the vehicle-treated group
